Reference: patent US20230085307A1, “PYRIDAZINONE COMPOUND AND HERBICIDE” (NISSAN CHEMICAL CORPORATION, priority 2019, published 2023)

Tests used:
[1] = test system: chickweed; assay: Test Example 5: herbicidal effect by foliage application, plastic box (Table 20, symbol P); assay type: in vivo, common chickweed (Stellaria media); details: foliage application, 320 g/ha, three weeks after application
Outline: (§1)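 Foliar spray test: emulsion formulation diluted in water to a set application rate, sprayed onto 14-day-old plants raised in diluvial soil at 25° C to 30° C under glass. Both herbicidal effect and crop effect rated visually three weeks later.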

[2] = test system: oval-leafed pondweed; assay: Test Example 2: herbicidal activity, application during weed generation under submerged conditions (Table 17, symbol C); assay type: in vivo, oval-leafed pondweed (Monochoria vaginalis); details: AAH 320 g/ha; application during weed generation, submerged conditions
Outline: (§2)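 Alluvial soil in Wagner pots was flooded to 4 cm depth and sown with the three weeds together; pots were kept in a greenhouse at 25° C. to 30° C. At the one to two leaf stage, an emulsion formulation diluted in water to a set rate went onto the water surface; scored three weeks later.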

[3] = test system: redroot pigweed; assay: Test Example 5: herbicidal effect by foliage application, plastic box (Table 20, symbol N); assay type: in vivo, redroot pigweed (Amaranthus retroflexus); details: foliage application, 320 g/ha, three weeks after application
Outline: as §1

[4] = test system: southern crabgrass; assay: Test Example 4: herbicidal effect by soil treatment (Table 19, symbol F); assay type: in vivo, southern crabgrass (Digitaria ciliaris); details: amount of applied herbicide 320 g/ha
Outline: (§3)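 Step 1: sow seeds in sterilized diluvial soil, cover ~1.5 cm. Step 2: spray diluted emulsion onto soil surface at predetermined rate. Step 3: greenhouse, 25–30° C, three weeks. Step 4: grade effect on each plant by earlier criteria.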

[5] = test system: rice flat sedge; assay: Test Example 3: herbicidal effect by foliage application, Wagner pot (Table 18, symbol E); assay type: in vivo, rice flat sedge (Cyperus iria); details: for herbicidal effect on E: rice flat sedge: amount of applied herbicide 320 g/ha
Outline: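 Plants were sown in alluvial soil held under 0.1–0.5 cm standing water and grown 14 days in a greenhouse at 25–30 °C. An emulsifiable formulation, water-diluted to the set dose, was then sprayed onto the foliage, and effects were scored three weeks later using previously defined criteria.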

[6] = test system: barnyard grass; assay: Test Example 5: herbicidal effect by foliage application, plastic box (Table 20, symbol H); assay type: in vivo, barnyard grass (Echinochloa crus-galli); details: foliage application, 320 g/ha, three weeks after application
Outline: as §1

[7] = test system: late watergrass; assay: Test Example 2: herbicidal activity, application during weed generation under submerged conditions (Table 17, symbol A); assay type: in vivo, late watergrass (Echinochloa oryzicola); details: AAH 320 g/ha; application during weed generation, submerged conditions
Outline: as §2

[8] = test system: Japanese bulrush; assay: Test Example 2: herbicidal activity, application during weed generation under submerged conditions (Table 17, symbol B); assay type: in vivo, Japanese bulrush (Schoenoplectus juncoides); details: AAH 320 g/ha; application during weed generation, submerged conditions
Outline: as §2

[9] = test system: wild oat; assay: Test Example 5: herbicidal effect by foliage application, plastic box (Table 20, symbol I); assay type: in vivo, wild oat (Avena fatua); details: foliage application, 320 g/ha, three weeks after application
Outline: as §1

[10] = test system: redroot pigweed; assay: Test Example 4: herbicidal effect by soil treatment (Table 19, symbol N); assay type: in vivo, redroot pigweed (Amaranthus retroflexus); details: amount of applied herbicide 320 g/ha
Outline: as §3

[11] = test system: blackgrass; assay: Test Example 5: herbicidal effect by foliage application, plastic box (Table 20, symbol J); assay type: in vivo, blackgrass (Alopecurus myosuroides); details: foliage application, 320 g/ha, three weeks after application
Outline: as §1

[12] = test system: Japanese bulrush; assay: Test Example 1: herbicidal activity, application before weed generation under submerged conditions (Table 16, symbol B); assay type: in vivo, Japanese bulrush (Schoenoplectus juncoides); details: amount of applied herbicide 320 g/ha
Outline: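 Emulsion formulation, water-diluted to set dose, was put onto the flooded surface (4 cm depth, alluvial soil) the same day weeds were sown and 2.5-leaf rice transplanted. After 3 weeks at 25-30 °C under glass, each species was rated 0 (≤5% kill) to 5 (≥90% kill).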

[13] = test system: velvetleaf; assay: Test Example 4: herbicidal effect by soil treatment (Table 19, symbol M); assay type: in vivo, velvetleaf (Abutilon theophrasti); details: amount of applied herbicide 320 g/ha
Outline: as §3

[14] = test system: chickweed; assay: Test Example 4: herbicidal effect by soil treatment (Table 19, symbol P); assay type: in vivo, common chickweed (Stellaria media); details: amount of applied herbicide 320 g/ha
Outline: as §3

[15] = test system: blackgrass; assay: Test Example 4: herbicidal effect by soil treatment (Table 19, symbol J); assay type: in vivo, blackgrass (Alopecurus myosuroides); details: amount of applied herbicide 320 g/ha
Outline: as §3

[16] = test system: wild oat; assay: Test Example 4: herbicidal effect by soil treatment (Table 19, symbol I); assay type: in vivo, wild oat (Avena fatua); details: amount of applied herbicide 320 g/ha
Outline: as §3

[17] = test system: green foxtail; assay: Test Example 4: herbicidal effect by soil treatment (Table 19, symbol G); assay type: in vivo, green foxtail (Setaria viridis); details: amount of applied herbicide 320 g/ha
Outline: as §3

SMILES	P: chickweed, herbicidal effect grade [1]	herbicidal effect rating, C: oval-leafed pondweed [2]	N: redroot pigweed, herbicidal effect grade [3]	herbicidal effect, F: southern crabgrass [4]	herbicidal effect on E: rice flat sedge [5]	H: barnyard grass, herbicidal effect grade [6]	herbicidal effect rating, A: late watergrass [7]	herbicidal effect rating, B: Japanese bulrush [8]	I: wild oat, herbicidal effect grade [9]	herbicidal effect, N: redroot pigweed [10]	J: blackgrass, herbicidal effect grade [11]	Herbicidal effect, B: Japanese bulrush [12]	herbicidal effect, M: velvetleaf [13]	herbicidal effect, P: chickweed [14]	herbicidal effect, J: blackgrass [15]	herbicidal effect, I: wild oat [16]	herbicidal effect, G: green foxtail [17]	further results
CCCC(=O)Oc1c(C)nn(C)c(=O)c1-c1c(-c2ccccc2OC)sc2cc(F)ccc12 [3-004]	5 (Herbicidal rate of 90% or more (almost completely withered))	4 (Herbicidal rate of 70% or more and less than 90%)	5 (Herbicidal rate of 90% or more (almost completely withered))	4 (Herbicidal rate of 70% or more and less than 90%)	5 (Herbicidal rate of 90% or more (almost completely withered))	5 (Herbicidal rate of 90% or more (almost completely withered))	4 (Herbicidal rate of 70% or more and less than 90%)	2 (Herbicidal rate of 20% or more and less than 40%)	4 (Herbicidal rate of 70% or more and less than 90%)	5 (Herbicidal rate of 90% or more (almost completely withered))	5 (Herbicidal rate of 90% or more (almost completely withered))	3 (Herbicidal rate of 40% or more and less than 70%)	4 (Herbicidal rate of 70% or more and less than 90%)	5 (Herbicidal rate of 90% or more (almost completely withered))	4 (Herbicidal rate of 70% or more and less than 90%)	3 (Herbicidal rate of 40% or more and less than 70%)	4 (Herbicidal rate of 70% or more and less than 90%)	
COc1ccc(-c2sc3cc(F)ccc3c2-c2c(O)c(C)nn(C)c2=O)cc1 [3-005]	5 (Herbicidal rate of 90% or more (almost completely withered))	4 (Herbicidal rate of 70% or more and less than 90%)	5 (Herbicidal rate of 90% or more (almost completely withered))	0 (Herbicidal rate of 5% or less (almost no effect))	5 (Herbicidal rate of 90% or more (almost completely withered))	3 (Herbicidal rate of 40% or more and less than 70%)	3 (Herbicidal rate of 40% or more and less than 70%)	3 (Herbicidal rate of 40% or more and less than 70%)	3 (Herbicidal rate of 40% or more and less than 70%)	5 (Herbicidal rate of 90% or more (almost completely withered))	0 (Herbicidal rate of 5% or less (almost no effect))	4 (Herbicidal rate of 70% or more and less than 90%)	3 (Herbicidal rate of 40% or more and less than 70%)	5 (Herbicidal rate of 90% or more (almost completely withered))	0 (Herbicidal rate of 5% or less (almost no effect))	0 (Herbicidal rate of 5% or less (almost no effect))	3 (Herbicidal rate of 40% or more and less than 70%)	
CCCC(=O)Oc1c(C)nn(C)c(=O)c1-c1c(-c2ccccc2OCC)sc2cc(F)ccc12 [3-007]	5 (Herbicidal rate of 90% or more (almost completely withered))	4 (Herbicidal rate of 70% or more and less than 90%)	5 (Herbicidal rate of 90% or more (almost completely withered))	4 (Herbicidal rate of 70% or more and less than 90%)	5 (Herbicidal rate of 90% or more (almost completely withered))	5 (Herbicidal rate of 90% or more (almost completely withered))	3 (Herbicidal rate of 40% or more and less than 70%)	4 (Herbicidal rate of 70% or more and less than 90%)	5 (Herbicidal rate of 90% or more (almost completely withered))	4 (Herbicidal rate of 70% or more and less than 90%)	5 (Herbicidal rate of 90% or more (almost completely withered))	5 (Herbicidal rate of 90% or more (almost completely withered))	4 (Herbicidal rate of 70% or more and less than 90%)	5 (Herbicidal rate of 90% or more (almost completely withered))	3 (Herbicidal rate of 40% or more and less than 70%)	2 (Herbicidal rate of 20% or more and less than 40%)	3 (Herbicidal rate of 40% or more and less than 70%)	
COc1ccccc1-c1sc2cc(F)ccc2c1-c1c(OC(=O)c2ccco2)c(C)nn(C)c1=O [3-023]	5 (Herbicidal rate of 90% or more (almost completely withered))	4 (Herbicidal rate of 70% or more and less than 90%)	5 (Herbicidal rate of 90% or more (almost completely withered))	3 (Herbicidal rate of 40% or more and less than 70%)	5 (Herbicidal rate of 90% or more (almost completely withered))	5 (Herbicidal rate of 90% or more (almost completely withered))	2 (Herbicidal rate of 20% or more and less than 40%)	2 (Herbicidal rate of 20% or more and less than 40%)	4 (Herbicidal rate of 70% or more and less than 90%)	5 (Herbicidal rate of 90% or more (almost completely withered))	5 (Herbicidal rate of 90% or more (almost completely withered))	3 (Herbicidal rate of 40% or more and less than 70%)	0 (Herbicidal rate of 5% or less (almost no effect))	4 (Herbicidal rate of 70% or more and less than 90%)	4 (Herbicidal rate of 70% or more and less than 90%)	0 (Herbicidal rate of 5% or less (almost no effect))	4 (Herbicidal rate of 70% or more and less than 90%)	
CCCC(=O)Oc1c(C)nn(C)c(=O)c1-c1c(-c2ccc(F)cc2OCC)sc2cc(OCC)ccc12 [3-096]	5 (Herbicidal rate of 90% or more (almost completely withered))	4 (Herbicidal rate of 70% or more and less than 90%)	5 (Herbicidal rate of 90% or more (almost completely withered))			5 (Herbicidal rate of 90% or more (almost completely withered))	4 (Herbicidal rate of 70% or more and less than 90%)	5 (Herbicidal rate of 90% or more (almost completely withered))	5 (Herbicidal rate of 90% or more (almost completely withered))		5 (Herbicidal rate of 90% or more (almost completely withered))	5 (Herbicidal rate of 90% or more (almost completely withered))						herbicidal effect on rice flat sedge (E) ([5]; 320 g/ha): 5 (Herbicidal rate of 90% or more (almost completely withered)); N: redroot pigweed, herbicidal effect grade [10]: 5 (Herbicidal rate of 90% or more (almost completely withered)); M: velvetleaf, herbicidal effect grade [13]: 4 (Herbicidal rate of 70% or more and less than 90%); P: chickweed, herbicidal effect grade [14]: 5 (Herbicidal rate of 90% or more (almost completely withered)); J: blackgrass, herbicidal effect grade [15]: 3 (Herbicidal rate of 40% or more and less than 70%); I: wild oat, herbicidal effect grade [16]: 0 (Herbicidal rate of 5% or less (almost no effect)); G: green foxtail, herbicidal effect grade [17]: 4 (Herbicidal rate of 70% or more and less than 90%)
